Test results: patent US20250154165A1, “MULTIANTENNARY GLYCOLIPID MIMETICS” (CONSEJO SUPERIOR DE INVESTIGACIONES CIENTÍFICAS (CSIC), priority 2021, published 2025)

Assays:
[1] = test system: CD8+ T cells in the spleen, OT-1 adoptive transfer mouse model; assay: Th1 immune response in vivo (CD8+ T cell proliferation, OT-1 adoptive transfer mouse model); details: OT-1 adoptive transfer mouse model (FIG. 13)
Protocol: FIG. 13. […] The adjuvancy capability of selected compounds 12 and 27 in vivo was assessed by their capability in promoting the proliferation of CD8^+ T cells in the spleen in the OT-1 adoptive transfer mouse model as described in the scheme.
(§1) For ovalbumin (OVA) challenge, mice were sensitized intraperitoneally (i.p.) with 50 μg of OVA with 2% alhydrogel adjuvant (InvivoGen). Mice were challenged three times with 50 μg of OVA on day 7 post-sensitization, either daily or every other day. Mice were sacrificed the day after the last OVA challenge. The scheme of the OT-1 adoptive transfer mouse model for examining the proliferation of CD8^+ T cells in adjuvanting OVA challenge is described in FIG. 13.
Compounds 12 and 27 were injected into OT-1 mice (transgenic mice that express a TCR that is specific for an ovalbumin OVA peptide) to validate the Th1-biased immunomodulation property.

JNK = assay: Signal transduction by multiplex bead array: JNK phosphorylation; type: cell-based; details: comparing to LPS treatment alone (FIG. 4)
Excerpt: (§2) FIG. 4. […] Compound 12, a representative compound of the invention, was examined in term of signal transduction to explore how the new compounds exert their suppressive effect, using the multiplex bead array.
(§3) Using the multiplex bead array, we examined how the new compounds might exert their suppressive effect in term of signal transduction.

[2] = test system: bone marrow-derived macrophages (BMDM) treated with LPS; assay: Suppression of LPS-induced inflammation in bone marrow-derived macrophages (BMDM in vitro); type: cell-based; details: BMDM (FIG. 2)
Excerpt: Since macrophage is the major responder to LPS-induced inflammation, we assessed the capability of selected compounds to suppress LPS-induced inflammation in bone marrow-derived macrophages (BMDM).

[3] = test system: OVA-induced AHR mouse model; assay: Suppression of OVA-induced airway inflammation in vivo (IL-13 and IL-4 in BALF and lungs); details: OVA-induced AHR experiment
Protocol: FIG. 8. […] The bronchoalveolar lavage fluid (BALF) from mice in the OAV-induced AHR experiment was examined forth IL-13 and IL-4 levels.
FIG. 9. […] The lungs from mice in the OAV-induced AHR experiment was examined for their IL-13 and IL-4 protein level.
FIG. 10. […] The lungs from mice in the OAV-induced AHR experiment was examined for their IL-13 and IL-4 mRNA levels.
as §1
Upon exposure of the trachea, the lungs were lavaged twice with 1 mL of PBS supplemented with 2% fetal calf serum (FCS). BALF was pooled and bronchoalveolar (BAL) cells were pelleted by centrifugation and fixed onto cytospin slides. The slides were stained with Diff-Quik solution (Polysciences Inc) and BAL differential cell count was performed.
Using the Th2 OVA-induced AHR mouse model, we assessed the capability of selected compounds 8, 12, 18, and 27 in suppressing Th2 inflammation.

[4] = test system: Splenocytes treated with LPS; assay: Suppression of LPS-induced inflammation (splenocytes in vitro); type: cell-based, mouse; details: splenocytes treated concurrently with compound and LPS (FIG. 1)
Protocol: FIG. 1. […] Splenocytes were treated concurrently with the compounds of the invention and LPS to assess the suppressive function of compounds on LPS-induced inflammation, with several compounds showing prominent suppressive function.
(§4) The whole spleen was surgically removed from a mouse and mechanically dissociated into a single cell suspension of splenocytes, which were then cultured in the complete RPMI 1640 medium (cRPMI). Human peripheral blood mononuclear cells (PBMCs) from healthy volunteers were collected from whole blood through gradient-centrifugation with Histopaque-1077 (Sigma-Aldrich).
Splenocytes were treated concurrently with the compounds of the invention and LPS to assess the suppressive function of compounds on LPS-induced inflammation.

[5] = test system: splenocytes isolated from MyD88 KO mice; assay: MyD88 dependency of cytokine induction (splenocytes from MyD88 KO mice in vitro); type: cell-based
Excerpt: FIG. 14. […] The dependency of the compounds of the invention on functional MyD88 for biological function was examined using the representative compound 12, with immune cells isolated from MyD88 knocked-out mice. […] IL-4 was not detectable with compound 12 treatment, indicating a Th1-biased property.
(§5) To determine whether the adjuvancy function of the representative compound 12 is MyD88-dependent or not, we performed experiments with immune cells isolated from MyD88 knocked-out (KO) mice. […] Data are dose-dependent and differences become more pronounced at the higher concentrations. […] Taken together, the results support that compound 12 adjuvancy function is MyD88-dependent.

[6] = test system: glycosidases of human fibroblast lysates; assay: Stability of the glycosidic linkage to glycosidases upon incubation with human fibroblast lysates; type: in vitro ADME; details: 4 h, 37° C., compound solution 200 μM, 0.1 M citrate buffer pH 4.5
Protocol: The stability of the glyosidic linkage in compounds 2, 4, 6, 8, 10, 12, 14, 16, 18, 20, 22, 23, 25, 27 and 29, selected as representative examples, upon incubation with human fibroblast lysates for 4 h was checked. For such purpose, cells were scraped into ice-cold H2O (10^6 cells mL^−1) and lysed by sonication. Insoluble materials were removed by centrifugation at 15,000 rpm for 5 min and protein concentrations were determined with Protein Assay Rapid Kit (WAKO, Tokyo, Japan). 10 μL of the lysates in 0.1% Triton X-100 in distilled water were incubated at 37° C. with 20 μL of the compound solution (200 μM) in 0.1 M citrate buffer, pH 4.5. In control experiments, the activity of several lysosomas glycosidases was confirmed using fluorescent substrates. The substrates were 4-methylumbelliferone (4-MU)-conjugated β-D-glucopyranoside (for GCase), α-D-glucopyranoside (for α-glucosidase), α-D-galactopyranoside (for α-Galase) and β-D-galactopyranoside (for β-galactosidase). The liberated 4-methylumbelliferone was measured in the black-well plate with a Perkin Elmer Luminescence Spectrometer (excitation wavelength: 340 nm; emission: 460 nm).

p38 = assay: Signal transduction by multiplex bead array: p38 phosphorylation; type: cell-based; details: comparing to LPS treatment alone (FIG. 4)
Excerpt: as §2, §3

[7] = test system: BMDC from MyD88 deficient mice; assay: MyD88 dependency of BMDC maturation; type: cell-based; details: BMDC from MyD88 deficient mice (FIG. 16)
Excerpt: as §5

Splenocytes = assay: Immune-stimulating function of compounds alone (splenocytes in vitro); type: cell-based, mouse
Protocol: FIG. 6. […] Splenocytes were treated with the compounds of the invention alone to assess the immune-stimulating function of the compounds. Compounds 12, 18, 22, 27, and 29 induced significant IFNγ secretion, and compound 8 induced significant IL-4 secretion.
as §4
Splenocytes were treated with the compounds of the invention alone to assess the immune-stimulating function of the compounds by measuring their ability to promote the secretions of IFN-γ and IL-4.

[8] = bronchoalveolar lavage fluid (FIG. 8)
[9] = splenocytes treated with compound alone (FIG. 6)

Structure (SMILES): CCCCCCCCCCCCNC(=O)C(COC1C(O)C(O)C(O)C2COC(=O)N21)NC(=O)CCCCCCCCCCC (centres unmarked) [Compound 12]
- proliferation of CD8+ T cells in the spleen [1]: significant CD8^+ T cell proliferation
- phosphorylation of JNK (JNK): not JNK
- suppression of LPS-induced inflammation [2]: particularly efficient in suppressing LPS-induced inflammation
- suppression of IL-6 ([2]; LPS-induced): significant suppression
- suppression of TNFα ([2]; LPS-induced): significant suppression
- IL-4 level in BALF [3, 8]: significantly suppressed
- IL-13 level in BALF [3, 8]: significantly suppressed
- IL-4 mRNA level in lungs ([3]; lung mRNA (FIG. 10)): could significantly suppress
- IL-13 mRNA level in lungs ([3]; lung mRNA (FIG. 10)): significantly suppressed
- IL-4 protein level in lungs ([3]; lung protein (FIG. 9)): significantly suppressed
- IL-13 protein level in lungs ([3]; lung protein (FIG. 9)): significantly suppressed
- suppressive function on LPS-induced inflammation [4]: prominent inflammation-suppressing function
- ability to induce IFNγ ([5]; splenocytes isolated from MyD88 KO mice (FIG. 14)): completely abrogated
- IL-4 induction ([5]; splenocytes, MyD88 experiment (FIG. 14)): no IL-4 induction was observed
- hydrolysis of the glycolipid mimetic (free polysubstituted 2-oxa-3-oxoindolizidine detected by gas chromatography) [6]: No traces of the free polysubstituted 2-oxa-3-oxoindolizidine
- phosphorylation of p38 (p38): significantly reduced
- maturation of BMDC induced by compound treatment [7]: impeded
- Th1/Th2 bias (Splenocytes; concluded from IFNγ and IL-4 secretion of splenocytes (FIG. 6)): Th1-biased
- IFNγ secretion (Splenocytes; [9]): effective in promoting the productions of IFNγ
- IL-4 secretion (Splenocytes; [9]): not IL-4
